Measured values taken from ChEMBL document CHEMBL2169811, “Oncoepigenomics: making histone lysine methylation count” (Eur J Med Chem, 2012).
pIC50, pKd: −log10 of the molar value.

Legend:
[1] = Inhibition of Drosophila melanogaster SET7/9
[2] = Inhibition of Neurospora crassa dim5
[3] = molecular target: Histone-lysine N-methyltransferase E(z) (Drosophila melanogaster, UniProt P42124); test: Inhibition of Drosophila melanogaster E(Z)
[4] = molecular target: T1, Histone-lysine N-methyltransferase EHMT2 (Homo sapiens, UniProt Q96KQ7)
T1 sequence (Q96KQ7 whole entry): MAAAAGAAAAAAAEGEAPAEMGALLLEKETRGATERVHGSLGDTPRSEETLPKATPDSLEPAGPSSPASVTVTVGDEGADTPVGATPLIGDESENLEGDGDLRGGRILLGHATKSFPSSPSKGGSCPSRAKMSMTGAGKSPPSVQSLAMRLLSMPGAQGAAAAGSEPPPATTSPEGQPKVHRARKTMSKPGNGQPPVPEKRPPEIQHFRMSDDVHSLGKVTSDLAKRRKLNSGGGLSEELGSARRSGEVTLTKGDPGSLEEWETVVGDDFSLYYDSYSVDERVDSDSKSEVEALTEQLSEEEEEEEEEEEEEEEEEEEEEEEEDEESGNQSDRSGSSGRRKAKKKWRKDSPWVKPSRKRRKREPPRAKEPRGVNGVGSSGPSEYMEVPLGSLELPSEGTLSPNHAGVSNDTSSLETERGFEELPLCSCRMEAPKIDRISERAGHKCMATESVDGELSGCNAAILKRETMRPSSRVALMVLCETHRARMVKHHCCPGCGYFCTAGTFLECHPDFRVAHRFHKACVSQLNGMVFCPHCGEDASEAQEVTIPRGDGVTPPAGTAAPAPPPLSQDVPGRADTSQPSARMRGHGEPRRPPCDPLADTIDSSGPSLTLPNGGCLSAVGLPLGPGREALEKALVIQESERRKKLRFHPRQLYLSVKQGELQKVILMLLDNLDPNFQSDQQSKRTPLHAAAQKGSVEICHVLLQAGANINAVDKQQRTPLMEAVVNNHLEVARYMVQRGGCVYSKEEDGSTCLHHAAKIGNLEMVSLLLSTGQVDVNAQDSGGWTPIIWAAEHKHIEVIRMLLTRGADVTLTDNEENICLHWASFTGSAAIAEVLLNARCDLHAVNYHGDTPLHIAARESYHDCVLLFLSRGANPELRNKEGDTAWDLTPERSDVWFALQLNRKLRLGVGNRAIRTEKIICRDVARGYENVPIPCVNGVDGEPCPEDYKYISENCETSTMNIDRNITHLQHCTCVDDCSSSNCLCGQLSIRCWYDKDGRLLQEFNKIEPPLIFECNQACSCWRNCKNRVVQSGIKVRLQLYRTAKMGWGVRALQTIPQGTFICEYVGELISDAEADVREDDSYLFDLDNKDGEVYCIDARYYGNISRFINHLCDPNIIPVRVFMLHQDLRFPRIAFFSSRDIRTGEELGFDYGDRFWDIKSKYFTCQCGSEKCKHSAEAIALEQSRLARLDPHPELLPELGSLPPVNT
Description: Inhibition of GST-tagged G9a after 1 hr by radioactive filter-binding assay

[5] = molecular target: T2, Histone-lysine N-methyltransferase SUV39H1 (Homo sapiens, UniProt O43463); test: Inhibition of human SUV39H1
T2 sequence (O43463 whole entry): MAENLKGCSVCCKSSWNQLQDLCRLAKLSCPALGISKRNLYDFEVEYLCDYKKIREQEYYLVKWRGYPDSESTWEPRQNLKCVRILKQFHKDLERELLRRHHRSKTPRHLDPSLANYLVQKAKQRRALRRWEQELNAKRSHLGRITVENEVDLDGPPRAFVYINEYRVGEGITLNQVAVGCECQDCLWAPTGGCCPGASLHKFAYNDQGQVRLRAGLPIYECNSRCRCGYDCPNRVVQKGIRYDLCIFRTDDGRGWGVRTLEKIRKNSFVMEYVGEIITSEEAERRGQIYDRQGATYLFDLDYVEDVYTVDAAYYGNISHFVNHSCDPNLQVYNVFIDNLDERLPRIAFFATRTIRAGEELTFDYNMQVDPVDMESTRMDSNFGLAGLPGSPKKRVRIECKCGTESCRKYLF

[6] = molecular target: T3, Histone-lysine N-methyltransferase Set8 (Drosophila melanogaster, UniProt Q9VFK6); test: Inhibition of Drosophila melanogaster PRSET7
T3 sequence (Q9VFK6 whole entry): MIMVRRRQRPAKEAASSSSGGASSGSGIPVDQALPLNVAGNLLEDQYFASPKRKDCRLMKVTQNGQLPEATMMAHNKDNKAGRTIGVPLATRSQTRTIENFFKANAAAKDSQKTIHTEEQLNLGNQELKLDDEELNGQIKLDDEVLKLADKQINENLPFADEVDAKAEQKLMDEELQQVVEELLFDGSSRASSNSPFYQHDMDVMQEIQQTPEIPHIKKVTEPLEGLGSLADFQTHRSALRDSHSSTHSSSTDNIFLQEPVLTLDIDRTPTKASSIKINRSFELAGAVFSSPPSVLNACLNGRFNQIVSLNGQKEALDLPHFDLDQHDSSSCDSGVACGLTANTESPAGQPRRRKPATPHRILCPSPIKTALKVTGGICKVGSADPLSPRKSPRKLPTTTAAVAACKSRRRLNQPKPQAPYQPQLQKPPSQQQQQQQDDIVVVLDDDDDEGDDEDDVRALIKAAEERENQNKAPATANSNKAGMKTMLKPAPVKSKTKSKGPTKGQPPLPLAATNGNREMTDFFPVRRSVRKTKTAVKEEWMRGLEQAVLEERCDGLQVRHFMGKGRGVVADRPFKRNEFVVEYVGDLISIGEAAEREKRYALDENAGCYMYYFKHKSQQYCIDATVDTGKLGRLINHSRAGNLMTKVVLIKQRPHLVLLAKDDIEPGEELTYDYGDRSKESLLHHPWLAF

[7] = molecular target: T4, Histone-lysine N-methyltransferase EHMT1 (Homo sapiens, UniProt Q9H9B1); test: Binding affinity to human recombinant GLP catalytic domain amino acid 951 to 1235 expressed in Escherichia coli BL21 (DE3) by isothermal titration calorimetry assay
T4 sequence (Q9H9B1 whole entry): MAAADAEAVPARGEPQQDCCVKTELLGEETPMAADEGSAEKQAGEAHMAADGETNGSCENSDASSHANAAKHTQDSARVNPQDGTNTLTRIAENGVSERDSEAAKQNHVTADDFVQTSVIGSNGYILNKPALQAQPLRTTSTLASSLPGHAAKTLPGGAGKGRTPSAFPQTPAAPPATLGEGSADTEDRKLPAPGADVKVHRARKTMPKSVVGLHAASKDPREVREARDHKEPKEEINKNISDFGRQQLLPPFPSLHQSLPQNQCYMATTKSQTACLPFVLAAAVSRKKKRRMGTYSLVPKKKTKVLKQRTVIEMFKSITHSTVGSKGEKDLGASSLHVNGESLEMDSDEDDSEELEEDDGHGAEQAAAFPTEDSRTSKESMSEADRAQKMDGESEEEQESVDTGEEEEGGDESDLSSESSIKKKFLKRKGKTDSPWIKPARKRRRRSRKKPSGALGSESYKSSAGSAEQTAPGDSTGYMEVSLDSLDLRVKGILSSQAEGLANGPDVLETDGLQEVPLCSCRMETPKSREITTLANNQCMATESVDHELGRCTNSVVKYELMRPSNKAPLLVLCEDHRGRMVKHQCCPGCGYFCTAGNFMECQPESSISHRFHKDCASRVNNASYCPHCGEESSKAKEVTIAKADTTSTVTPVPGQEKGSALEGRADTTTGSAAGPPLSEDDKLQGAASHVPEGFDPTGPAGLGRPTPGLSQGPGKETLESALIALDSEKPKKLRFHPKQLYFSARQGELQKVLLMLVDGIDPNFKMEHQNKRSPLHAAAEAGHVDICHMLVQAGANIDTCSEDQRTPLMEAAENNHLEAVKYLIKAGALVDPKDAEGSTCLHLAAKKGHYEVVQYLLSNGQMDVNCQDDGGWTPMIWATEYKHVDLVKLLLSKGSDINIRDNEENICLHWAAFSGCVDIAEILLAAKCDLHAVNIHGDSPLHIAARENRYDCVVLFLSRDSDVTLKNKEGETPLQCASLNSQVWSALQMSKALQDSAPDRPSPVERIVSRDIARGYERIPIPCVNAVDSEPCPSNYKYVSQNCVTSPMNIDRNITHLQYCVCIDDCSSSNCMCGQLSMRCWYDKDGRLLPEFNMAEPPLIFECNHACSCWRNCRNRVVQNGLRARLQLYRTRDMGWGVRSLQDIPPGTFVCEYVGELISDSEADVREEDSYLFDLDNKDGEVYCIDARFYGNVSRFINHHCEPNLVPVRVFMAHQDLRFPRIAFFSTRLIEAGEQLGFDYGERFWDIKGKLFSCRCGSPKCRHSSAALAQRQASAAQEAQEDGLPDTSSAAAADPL

[8] = molecular target: T1, Histone-lysine N-methyltransferase EHMT2; test: Inhibition of human recombinant G9a catalytic domain amino acid 913 to 1193 expressed in Escherichia coli BL21 (DE3) by mass spectrophotometric assay
[9] = molecular target: T1, Histone-lysine N-methyltransferase EHMT2; test: Binding affinity to human recombinant G9a catalytic domain amino acid 913 to 1193 expressed in Escherichia coli BL21 (DE3) by isothermal titration calorimetry assay

Sequence of Histone-lysine N-methyltransferase E(z) (P42124 whole entry): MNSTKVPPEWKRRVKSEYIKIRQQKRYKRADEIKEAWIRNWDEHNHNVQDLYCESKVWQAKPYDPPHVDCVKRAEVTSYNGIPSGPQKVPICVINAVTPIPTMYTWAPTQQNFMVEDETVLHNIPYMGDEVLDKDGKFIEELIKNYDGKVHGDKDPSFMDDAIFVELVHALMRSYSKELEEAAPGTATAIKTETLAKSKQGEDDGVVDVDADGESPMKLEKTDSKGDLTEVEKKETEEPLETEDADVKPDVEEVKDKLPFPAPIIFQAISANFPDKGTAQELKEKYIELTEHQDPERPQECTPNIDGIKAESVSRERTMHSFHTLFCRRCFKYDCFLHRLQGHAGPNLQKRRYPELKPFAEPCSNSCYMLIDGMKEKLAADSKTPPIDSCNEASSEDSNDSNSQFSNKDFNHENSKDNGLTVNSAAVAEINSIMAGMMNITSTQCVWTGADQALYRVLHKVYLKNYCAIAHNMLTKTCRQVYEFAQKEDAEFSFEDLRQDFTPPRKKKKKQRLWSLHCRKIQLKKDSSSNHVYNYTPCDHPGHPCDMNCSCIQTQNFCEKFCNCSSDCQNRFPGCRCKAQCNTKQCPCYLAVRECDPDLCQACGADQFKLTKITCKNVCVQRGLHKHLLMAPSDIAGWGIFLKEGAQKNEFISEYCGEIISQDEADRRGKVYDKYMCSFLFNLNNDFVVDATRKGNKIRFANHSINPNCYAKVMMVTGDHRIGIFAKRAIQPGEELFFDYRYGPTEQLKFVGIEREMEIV

pKd [7] | pIC50 [8] | pKd [9] | SMILES | pIC50 [1] | pIC50 [2] | pIC50 [3] | pIC50 [4] | pIC50 [5] | pIC50 [6]
 |  |  | CN1C(=O)[C@@]23C[C@]4([C@]56C[C@@]78SS[C@@](CO)(C(=O)N7[C@H]5Nc5ccccc56)N(C)C8=O)c5ccccc5N[C@@H]4N2C(=O)[C@]1(CO)SS3 [CHAETOCIN] | < 4.05 | 5.52 | < 4.05 | 5.62 | 6.10 | < 4.05
6.87 | 5.89 | 6.79 | COc1cc2c(NC3CCN(CCCCCN)CC3)nc(NCCCN(C)C)nc2cc1OCCCCCN |  |  |  |  |  | 
